# Entries after “also recorded” stand apart in the source; their conditions may differ.
# Tests used:
# Format in all cases: cell-based
# [1] = tested on: bacterial strain SK-1; assay: Growth substrate tests in liquid medium; conditions: initial concentration 100 parts per million, except chlorobenzoate 2-3 millimolar
# Description: (§1) The ability of the four isolated strains to grow on selected polychlorobiphenyls as a sole carbon source was assessed.
# (§2) (All tests were conducted in a liquid medium. The initial concentration of the organic substrate was 100 parts per million, except chlorobenzoate, which was 2-3 millimolar).
# [2] = tested on: bacterial strain SK-2; assay: Growth substrate tests in liquid medium; conditions: initial concentration 100 parts per million, except chlorobenzoate 2-3 millimolar
# Description: as §1, §2
# [3] = tested on: bacterial strain SK-3; assay: Growth substrate tests in liquid medium; conditions: initial concentration 100 parts per million, except chlorobenzoate 2-3 millimolar
# Description: as §1, §2
# [4] = tested on: bacterial strain SK-4; assay: Growth substrate tests in liquid medium; conditions: initial concentration 100 parts per million, except chlorobenzoate 2-3 millimolar
# Description: as §1, §2
# [5] = tested on: bacterial strain SK-3; assay: Biodegradation of commercial PCB mixture Aroclor 1242 as sole carbon source; conditions: 12 days; benzoate-grown washed cells; no cosubstrate; GC
# Description: In addition to testing the ability to use a single PCB congener as a sole carbon source (as described in Example 1), several strains of the isolated bacteria of the invention (SK-1, SK-2, SK-3 and SK-4) were tested for the ability to degrade low chlorinated PCB congeners (dichlorobiphenyls and trichlorobiphenyls) of a commercial PCB mixture in the absence of biphenyl or any other cometabolic substrate as a carbon source.
# The ability of SK-1, SK-2, SK-3 and SK-4 to degrade Aroclor® 1242 was assessed using cells which were grown on benzoate and then washed. Briefly, the cells were washed by centrifuging the cells, decanting the supernatant, resuspending the cells in fresh medium, then pelleting the cells using centrifugation again and decanting the supernatant to remove residual benzoate and other carbon sources. Aroclor® 1242 was the sole carbon source provided to the cells.
# The degradation of Aroclor® 1242 by SK-3 was monitored using gas is chromatography analysis and the results are depicted in FIG. 12. […] The degraded PCB congeners were identified as follows: Peak #1 was 2,5-DCBP or 2,4-DCBP; Peak #2 was 2,3′-DCBP; and Peak #3 was 2,4′-DCBP. No significant degradation of any PCB congener containing three or more chlorine atoms was observed.
# [6] = tested on: bacterial strain SK-3; assay: Characterization of SK-3: growth on and degradation of chlorobiphenyls and chlorobenzoates
# Description: The concentrations of chlorobenzoates and dichlorobiphenyls were assessed after hexane extraction of bottles using gas chromatography analysis of the extracts with an electron capture detector. Chlorobenzoates were analyzed using standard columns after derivitization with pentafluorobenzyl bromide. Dichlorobiphenyls were analyzed using a DB-5 column (J&W Scientific, Fulsom, Calif.).
# The results from this experiment are depicted in FIG. 5.
# The growth of SK-3 on 4-chlorobiphenyl (4-CB) was compared with growth on its non-chlorinated form, biphenyl. […] The results from this experiment are depicted in FIG. 6. The concentration of chloride ion was determined using ion chromatography on a standard Dionex ion chromatography column. The concentration of 4-CB was assessed after hexane extraction of bottles by analyzing the hexane extracts using gas chromatography on a DB-5 column (J&W Scientific, Fulsom, Calif.) and an electron capture detector.
# The growth of SK-3 on chlorobenzoates was assessed. […] The results from this experiment are depicted in FIG. 7.
# The degradation of three different monochlorobiphenyls, (2-CB, 3-CB, and 4-CB) by SK-3 was assessed at 23° C. under aerobic conditions on a shaker table. After incubation of SK-3 with the selected monochlorobiphenyl for 88 hours, the concentrations of chloride and the corresponding chlorobenzoic acids (CBA) was assessed as described herein. The results from this experiment are depicted in FIG. 8.
# The growth of SK-3 on dichloro-biphenyls was also assessed. […] The results of this experiment are depicted in FIG. 9.
# [7] = tested on: bacterial strain SK-4; assay: Characterization of SK-4: growth on and degradation of 2,2′-DCBP and 2,4′-DCBP
# Description: The same methods for determining concentrations of analytes and for the incubation of the bacterial strain with growth substrate described herein for the previous analyses were used in the experiments to characterize SK-4. The concentration of SK-4 cells in the experiments was 1.5×10^7 cells per milliliter and the concentration of 2,2′-DCBP or 2,4′-DCBP was 100 milligrams per liter. […] Ortho-substituted congeners are common degradation products of anaerobic reductive dechlorination of more highly chlorinated PCBs (PCBs comprising more than two chlorine atoms) by anaerobic bacteria.
# 2,2′-DCBP was supplied at a concentration of 100 milligrams per liter dissolved in heptamethyl nonane (HMN), a non-biodegradable PCB solvent. Controls contained HMN but lacked 2,2′-DCBP.
# [8] = 1.5×10^7 cells per milliliter, substrate in heptamethyl nonane
structure (smiles),measurement,setting,value
"Clc1ccc(-c2ccccc2Cl)cc1 [2,4′-DCBP, 2,4′-dichlorobiphenyl]",Growth of SK-1 on the substrate as sole carbon source,[1],Yes
same,Growth of SK-2 on the substrate as sole carbon source,[2],Unlikely
same,Growth of SK-3 on the substrate as sole carbon source,[3],exhibited growth and Yes
same,Growth of SK-4 on the substrate as sole carbon source,[4],exhibited growth and Yes
same,Degradation of PCB congeners of Aroclor 1242 by SK-3,[5],degraded
same,Growth of SK-3 on the substrate as sole carbon source,[6],able to grow
same,Doubling time of SK-3 grown on the substrate,"[6]; concentration 0.27 mM, sole carbon source",approximately 43 hours
same,Extent of chloride production by SK-3,"[6]; growth on 0.27 mM 2,4′-DCBP",0.49 mM
same,"Production of chlorobenzoates (2-CBA, 4-CBA) during growth of SK-3","[6]; growth on 2,4′-DCBP",not detected
same,Growth of SK-4 on the substrate as sole carbon source,"[7]; 1.5×10^7 cells per milliliter, 100 milligrams per liter",growth; also recorded: ability to grow rapidly
same,Chloride release on degradation by SK-4,[7]; [8],production of chloride
same,Chlorobenzoate production on degradation by SK-4,[7]; [8],stoichiometric accumulation of a chlorobenzoate
same,Doubling time of SK-4 grown on the substrate,"[7]; concentration 0.42 mM, sole carbon source",~17 h

# — US6537797B1, “Compositions and methods useful in bioremediation of polychlorinated biphenyls” (Indiana University, Advanced Research and Technology …, priority 1999, dated 2003)
